Data from ChEMBL document CHEMBL3392960, “Discovery of thienoimidazole-based HCV NS5A inhibitors. Part 1: C2-symmetric inhibitors with diyne and biphenyl linkers” (Bioorg Med Chem Lett, 2015).
pEC50: −log10 of the molar value.

Assays:
Hepatitis C virus [1] = test: Antiviral activity against Hepatitis C virus genotype 1a infected in W11.8 cells assessed as decrease in NS5A expression in replicon cell after 4 days by luminescence based ELISA; type: functional, Hepacivirus hominis; settings: subtype 1a, W11.8, 96 h
Hepatitis C virus [2] = test: Antiviral activity against Hepatitis C virus genotype 1b infected in human Huh-5.2 cells assessed as decrease in HCV replicon RNA replication after 4 days by luciferase assay; type: functional, cell-based, Hepacivirus hominis; settings: Huh-5-2, 96 h
[3] = Cytotoxicity against human HuhET cells by [3H]thymidine incorporation assay; type: cell-based
[4] = Clearance in iv dosed Sprague-Dawley rat; type: ADME, organism-based; settings: in vivo
[5] = Half life in iv dosed Sprague-Dawley rat; type: ADME, organism-based; settings: in vivo
[6] = Volume of distribution at steady state in iv dosed Sprague-Dawley rat; type: ADME, organism-based; settings: in vivo, read-out: Vdss

| SMILES | pEC50 (Hepatitis C virus [1]) | pEC50 (Hepatitis C virus [2]) | CC50 [3] | clearance [4] | half-life [5] | Vd [6] |
| --- | --- | --- | --- | --- | --- | --- |
| COC(=O)N[C@H](C(=O)N1CCC[C@H]1c1nc2sc(C#CC#Cc3cc4[nH]c([C@@H]5CCCN5C(=O)[C@@H](NC(=O)OC)C(C)C)nc4s3)cc2[nH]1)C(C)C | 6.55 | 9.41 | 6100 nM | 8.2 mL/min/kg | 5.2 h | 3.3 L/kg |
| COC(=O)N[C@H](C(=O)N1C[C@@H](C)C[C@H]1c1nc2sc(C#CC#Cc3cc4[nH]c([C@@H]5C[C@H](C)CN5C(=O)[C@@H](NC(=O)OC)C(C)C)nc4s3)cc2[nH]1)C(C)C | 6.74 | 9.77 | > 20000 nM |  |  |  |
| COC(=O)N[C@H](C(=O)N1C[C@@H](C)C[C@H]1c1nc2sc(-c3ccc(-c4ccc(-c5cc6[nH]c([C@@H]7C[C@H](C)CN7C(=O)[C@@H](NC(=O)OC)C(C)C)nc6s5)cc4)cc3)cc2[nH]1)C(C)C | 8.22 | 11.22 | > 20000 nM | 8 mL/min/kg | 4.5 h | 2.2 L/kg |
